Patent publication US20220395472A1 (Dermavant Sciences GmbH, priority 2021, published 2022)

Test system: adults with plaque psoriasis
Assay: Long-term open-label extension study (PSOARING 3): Physician Global Assessment (PGA), treatment episodes, treatment success, remittive effect
Type: in vivo, human
Procedure: This extension study consisted of up to 40 weeks of treatment and a 4 week, safety follow up period.
At the completion of the Week 12 visit of the DB, pivotal Phase 3 study, eligibility of the subjects opting to enroll in this extension study was confirmed. Study visits during the treatment period for all subjects occurred every 4 weeks (±3 days). A phone call was performed at Week 2 (Day 15). Unscheduled visits may have occurred, as needed. Subjects who withdrew from this study before Week 40 returned to the study center for an Early Termination visit. The total duration of this extension study participation was 44 weeks. Subjects in this study were treated as follows based on their PGA score from the Week 12 visit in the DB, pivotal Phase 3 study (Study DMVT 505 3001 or Study DMVT 505 3002).
The PGA was used to assess the primary efficacy endpoint in this study. The PGA is a clinical tool for assessing the current state/severity of a subject's psoriasis at a given time point. It is a static, 5 point, morphological assessment of overall disease severity, as determined by the Investigator, using the clinical characteristics of erythema, scaling, and plaque thickness/elevation as guidelines; higher PGA scores represent more severe disease (0=clear, 1=almost clear, 2=mild, 3=moderate, and 4=severe). The BSA affected was not considered in scoring of the PGA. Variations of the PGA are frequently used in clinical studies because it is a simple assessment, similar to those used in clinical practice. The PGA was performed first, prior to the % BSA, PASI, and LTS assessments.
Time to event parameters, such as the time from treatment success to subsequent worsening (PGA≥2) or duration of treatment episode, were summarized by the Kaplan Meier product limit method using OC.

[1] = Baseline PGA = 1, Tapinarof (Pivotal) group
[2] = Baseline PGA = 1, Vehicle (Pivotal) group
[3] = Baseline PGA = 2, Tapinarof (Pivotal) group

## CC(C)c1c(O)cc(/C=C/c2ccccc2)cc1O [Tapinarof, 3,5-Dihydroxy-4-isopropyl-trans-stilbene]
Baseline PGA = 1, Overall
  Duration of 3rd Success, Mean (SD): 15.0 (19.80) days
  Duration of 3rd Success, Median: 15.0 days
  Duration of Last Episode, Mean (SD): 146.7 (95.87) days
  Duration of Last Episode, Median: 141.0 days
  Duration of Last Success, Median: 90.0 days
  Total Duration of Treatment Episodes, Mean (SD): 165.9 (90.32) days
  Total Duration of Treatment Episodes, Median: 193.0 days
  Total Duration of Treatment Success, Mean (SD): 124.5 (78.53) days
  Total Duration of Treatment Success, Median: 120.0 days
[1]
  Average Duration of Episodes, Mean (SD): 138.9 (94.99) days
  Average Duration of Episodes, Median: 112.0 days
  Average Duration of Treatment Success, Mean (SD): 106.8 (76.36) days
  Average Duration of Treatment Success, Median: 92.5 days
  Duration of 1st Episode, Mean (SD): 132.6 (99.69) days
  Duration of 1st Episode, Median: 85.5 days
  Duration of 1st Success, Mean (SD): 106.3 (77.57) days
  Duration of 1st Success, Median: 86.0 days
  Duration of 2nd Episode, Mean (SD): 97.9 (62.19) days
  Duration of 2nd Episode, Median: 83.0 days
  Duration of 2nd Success, Mean (SD): 71.6 (58.68) days
  Duration of 2nd Success, Median: 52.0 days
  Duration of 3rd Episode, Mean (SD): 54.9 (56.83) days
  Duration of 3rd Episode, Median: 28.0 days
  Duration of 3rd Success, Mean (SD): 15.0 (19.80) days
  Duration of 3rd Success, Median: 15.0 days
  Duration of Last Episode, Mean (SD): 145.2 (96.38) days
  Duration of Last Episode, Median: 144.0 days
  Duration of Last Success, Mean (SD): 107.2 (79.80) days
  Duration of Last Success, Median: 85.5 days
  Total Duration of Treatment Episodes, Mean (SD): 165.9 (90.68) days
  Total Duration of Treatment Episodes, Median: 194.5 days
  Total Duration of Treatment Success, Mean (SD): 123.7 (78.29) days
  Total Duration of Treatment Success, Median: 116.5 days
[2]
  Average Duration of Episodes, Mean (SD): 150.0 (97.54) days
  Average Duration of Episodes, Median: 112.0 days
  Average Duration of Treatment Success, Mean (SD): 116.9 (71.80) days
  Average Duration of Treatment Success, Median: 127.0 days
  Duration of 1st Episode, Mean (SD): 141.1 (105.95) days
  Duration of 1st Episode, Median: 112.0 days
  Duration of 1st Success, Mean (SD): 115.0 (71.74) days
  Duration of 1st Success, Median: 127.0 days
  Duration of 2nd Episode, Mean (SD): 104.0 (61.27) days
  Duration of 2nd Episode, Median: 109.5 days
  Duration of 2nd Success, Mean (SD): 144.0 (NE) days
  Duration of 2nd Success, Median: 144.0 days
  Duration of Last Episode, Mean (SD): 159.0 (93.38) days
  Duration of Last Episode, Median: 134.0 days
  Duration of Last Success, Mean (SD): 118.9 (72.32) days
  Duration of Last Success, Median: 136.0 days
  Total Duration of Treatment Episodes, Mean (SD): 165.5 (89.94) days
  Total Duration of Treatment Episodes, Median: 140.0 days
  Total Duration of Treatment Success, Mean (SD): 131.0 (85.06) days
  Total Duration of Treatment Success, Median: 136.0 days
Baseline PGA = 2, Overall
  Average Duration of Episodes, Mean (SD): 175.5 (93.95) days
  Average Duration of Episodes, Median: 197.0 days
  Average Duration of Treatment Success, Mean (SD): 83.6 (69.31) days
  Average Duration of Treatment Success, Median: 66.5 days
  Duration of 1st Episode, Mean (SD): 177.8 (92.43) days
  Duration of 1st Episode, Median: 197.0 days
  Duration of 1st Success, Mean (SD): 90.4 (72.34) days
  Duration of 1st Success, Median: 83.0 days
  Duration of 2nd Episode, Mean (SD): 67.5 (52.79) days
  Duration of 2nd Episode, Median: 59.0 days
  Duration of 2nd Success, Mean (SD): 31.9 (43.41) days
  Duration of 2nd Success, Median: 27.5 days
  Duration of 3rd Episode, Mean (SD): 28.7 (27.50) days
  Duration of 3rd Episode, Median: 29.0 days
  Duration of 3rd Success, Mean (SD): 29.0 (NE) days
  Duration of 3rd Success, Median: 29.0 days
  Duration of Last Episode, Mean (SD): 173.2 (97.88) days
  Duration of Last Episode, Median: 197.0 days
  Duration of Last Success, Mean (SD): 77.3 (73.84) days
  Duration of Last Success, Median: 56.0 days
  Total Duration of Treatment Episodes, Mean (SD): 188.8 (87.61) days
  Total Duration of Treatment Episodes, Median: 200.0 days
  Total Duration of Treatment Success, Mean (SD): 98.0 (74.01) days
  Total Duration of Treatment Success, Median: 84.0 days
[3]
  Average Duration of Episodes, Mean (SD): 177.3 (95.45) days
  Average Duration of Episodes, Median: 197.0 days
  Average Duration of Treatment Success, Mean (SD): 78.7 (71.03) days
  Average Duration of Treatment Success, Median: 57.0 days
  Duration of 1st Episode, Mean (SD): 179.2 (94.49) days
  Duration of 1st Episode, Median: 197.0 days
